Non-standard residues stand in square brackets, D forms with d. Residues, ends and D or L forms follow the SMILES beside them.
Test system: influenza virus (A/Puerto Rico/8/34, PR8) expressing green fluorescent protein (PR8-GFP)
Format: cell-based

For `CC(C)C[C@@H](NC(=O)[C@@H](CC(C)C)NC(=O)[C@@H](CC(N)=O)NC(=O)[C@H](NC(=O)[C@@H](Cc1ccccc1)NC(=O)CNC(=O)[C@@H](Cc1ccc(O)cc1)NC(=O)CNC(=O)[C@@H](CCCNC(=N)N)NC(=O)[C@@H](CCCCN)NC(=O)[C@@H](CCCCN)NC(=O)[C@@H](CCCNC(=N)N)NC(=O)[C@@H](CCCNC(=N)N)NC(=O)[C@@H](CCC(N)=O)NC(=O)[C@@H](CCCNC(=N)N)NC(=O)[C@@H](CCCNC(=N)N)NC(=O)[C@H](N)CCCNC(=N)N)C(C)C)C(=O)N[C@H](Cc1ccccc1)C(=O)N[C@H](CC(C)C)C(=O)N[C@@H](C(=O)N[C@@H](C(=O)N[C@H](CCC(=O)O)C(=O)O)C(C)C)C(C)C` [TAT-Kα2] (H-[dR][dR][dR][dQ][dR][dR][dK][dK][dR]G[dY]G[dF][dV][dN][dL][dL][dF][dL][dV][dV][dE]-OH), the “inhibition of PR8-GFP virus infection” value was “significantly inhibited”.

Source: article PMC5501782 (Scientific Reports, 2017)
